Read-outs that look alike come from different tables or passages of the source. One block for each molecule: values may come before it.
Legend:
[1] = cited from earlier work
VDR = molecular target: T1, VDR (Homo sapiens, UniProt P11473); experiment: Lentiviral VDRE-luciferase transcriptional reporter assay; type: cell-based; settings: for VDR activation (in words): concentration up to 1000 nM, all three cell lines (HaCaT, Caco-2, Jurkat); for EC50: 24 h, NS: no significance
T1 sequence (P11473 1-427): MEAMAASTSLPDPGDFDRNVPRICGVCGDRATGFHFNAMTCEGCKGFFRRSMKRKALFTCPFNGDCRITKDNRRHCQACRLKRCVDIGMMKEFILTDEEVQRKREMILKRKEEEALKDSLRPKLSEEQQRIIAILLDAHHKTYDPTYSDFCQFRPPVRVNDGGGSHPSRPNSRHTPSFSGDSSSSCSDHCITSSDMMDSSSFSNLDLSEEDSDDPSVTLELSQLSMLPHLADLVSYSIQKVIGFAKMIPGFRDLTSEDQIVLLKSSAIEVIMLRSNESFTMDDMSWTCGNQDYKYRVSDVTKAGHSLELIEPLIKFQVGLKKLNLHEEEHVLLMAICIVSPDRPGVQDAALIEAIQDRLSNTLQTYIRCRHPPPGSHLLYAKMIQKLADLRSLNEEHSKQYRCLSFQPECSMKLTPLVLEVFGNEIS

SKMEL-188 melanoma cells = experiment: Antiproliferative activity on melanoma cells; type: cell-based; settings: compared with parent compounds and 1,25(OH)2D3

Compound: C=C1/C(=C\C=C2/CCC[C@]3(C)[C@@H]([C@H](C)CCCC(C)(C)O)CC[C@@H]23)C[C@@H](O)C[C@@H]1O [1,25(OH)2D3, 1α,25-dihydroxyvitamin D3]
Calcemic effect ([1]; rats and mice): causes hypercalcemia

VDR activation (in words) (VDR): strong stimulatory effect
Compound: C=C1CC[C@H](O)C/C1=C/C=C1\CCC[C@@]2(C)[C@H]1CC[C@@H]2[C@@](C)(O)C[C@H](O)CC(C)C [17a, 20S,23R(OH)2D3]

VDR activation (in words) (VDR): unable to activate VDR
EC50 (VDR; read-out: VDRE activation (EC50, nM) Caco-2, Caco-2 cells): > 1000 nM
EC50 (VDR; read-out: VDRE activation (EC50, nM) HaCaT, HaCaT cells): > 1000 nM
EC50 (VDR; read-out: VDRE activation (EC50, nM) Jurkat, Jurkat cells): > 1000 nM
Compound: C=C1CC[C@H](O)C/C1=C/C=C1\CCC[C@@]2(C)[C@H]1CC[C@@H]2[C@@](C)(O)C[C@@H](O)CC(C)C [17b, 20S,23S-dihydroxyvitamin D3]

EC50 in Jurkat cells relative to that of 18b (VDR; Jurkat cells): six times lower
Compound: C=C1/C(=C\C=C2/CCC[C@@]3(C)[C@H]2CC[C@@H]3[C@@](C)(O)C[C@H](O)CC(C)C)C[C@@H](O)C[C@@H]1O [18a, 1α,20S,23R(OH)3D3]
Maximal inhibition values (in words) (SKMEL-188 melanoma cells): higher maximal inhibition values

Compound: C=C1/C(=C\C=C2/CCC[C@@]3(C)[C@H]2CC[C@@H]3[C@@](C)(O)C[C@@H](O)CC(C)C)C[C@@H](O)C[C@@H]1O [18b, 1α,20S,23S(OH)3D3]
Maximal inhibition values (in words) (SKMEL-188 melanoma cells): higher maximal inhibition values

Compound: C=C1CC[C@H](O)C/C1=C/C=C1\CCC[C@@]2(C)[C@H]1CC[C@@H]2[C@@](C)(O)CCCC(C)C [20S(OH)D3, 20S-hydroxyvitamin D3]
Calcemic effect ([1]; doses up to 30 μg/kg in mice): noncalcemic
